According to US6333176A (Degussa Aktiengesellschaft, priority 1994, dated 2001):
Peptide text beside a SMILES is read from it.

These molecules were tested against T1, peptide amidase from Xanthomonas maltophilia (Stenotrophomonas maltophilia, UniProt Q8RJN5) (assay: Enzymatic conversion of unprotected amino acid amides, thin-layer chromatography). Conditions: substrate 10 mM.
T1 construct: wild type, not recombinant
T1 sequence (Q8RJN5 34-540): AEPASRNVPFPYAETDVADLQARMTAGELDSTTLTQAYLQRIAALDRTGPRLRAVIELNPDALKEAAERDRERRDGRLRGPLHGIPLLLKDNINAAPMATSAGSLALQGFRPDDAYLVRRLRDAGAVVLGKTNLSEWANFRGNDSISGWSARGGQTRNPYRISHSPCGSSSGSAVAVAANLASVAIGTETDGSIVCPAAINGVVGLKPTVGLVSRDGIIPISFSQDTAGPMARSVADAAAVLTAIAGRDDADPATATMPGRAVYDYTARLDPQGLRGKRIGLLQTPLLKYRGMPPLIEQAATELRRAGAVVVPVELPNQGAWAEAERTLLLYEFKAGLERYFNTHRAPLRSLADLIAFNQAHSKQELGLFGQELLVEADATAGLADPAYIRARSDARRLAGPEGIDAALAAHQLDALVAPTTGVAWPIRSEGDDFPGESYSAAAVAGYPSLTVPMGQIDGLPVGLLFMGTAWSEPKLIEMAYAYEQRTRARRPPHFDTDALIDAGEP
Assay type: biochemical
Procedure: (§1) 18 mU of peptide amidase (purification state after the gel filtration) per ml test batch was used for the substrate spectrum of peptide amidase from Xanthomonas maltophilia. The concentration of the tested substrates was 10 mM in the reaction batch. Unless otherwise indicated, L-amino acid derivatives were used. The incubation took place in 50 mM tris/HCl, pH 7.5 at 30° C. for 3 hours. The reaction was stopped by heating for 5 minutes at 95° C. The determination of activity took place using enzymatic determination of the released ammonia (Bergmeyer, U. (1985): Methods of Enzymatic Analysis, p. 459, VCH Verlagsgesellschaft, Weinheim).
The following thin-layer chromatographic methods were used for the analysis of the substrates and products cited in table 4d. To this end 1 μl of the stopped reaction batch was applied.

Molecule	Conversion (unprotected amino acid amides)	Conversion (unprotected amino acid amides, Table 4d)
C[C@H](N)C(N)=O [H-Ala-NH2]	0	0
C[C@@H](N)C(N)=O [H-D-Ala-NH2]	0	0
CC(C)C[C@@H](N)C(N)=O [H-D-Leu-NH2]	0	0
CC[C@H](C)[C@H](N)C(N)=O [H-Ile-NH2]	0	0

What follows are molecules tested against T1, peptide amidase from Xanthomonas maltophilia (assay: Substrate spectrum of peptide amidase, enzymatic determination of the released ammonia). Conditions: substrate 10 mM, 18 mU peptide amidase per ml, 50 mM tris/HCl pH 7.5, 30° C., 3 hours.
Assay type: biochemical
Procedure: as §1

Molecule	Relative conversion (conversion of N-acetyl amino acid amides, Table 4b) [%]	Relative conversion (influence of protective group and adjacent amino acid, Table 4c) [%]	Relative conversion (conversion of dipeptide amides, Table 4a) [%]
CC(=O)N[C@@H](CS)C(N)=O	82		
CC(=O)NC(CC(C)(C)C)C(N)=O (racemic) [Ac-D,L-neopentylglycine amide, Nα -acetyl-DL-neopentylglycine Amide]	131		
CSCCC(NC(N)=O)C(N)=O (racemic) [N-Carbamoyl-D,L-Met-NH2]		77	
CCOC(=O)NC(CCSC)C(N)=O (racemic) [N-Ethoxy-D,L-Met-NH2, Nα -ethoxycarbonyl-DL-methionine amide]		124	
COC(=O)NC(CCSC)C(N)=O (racemic) [N-Methoxy-D,L-Met-NH2, Nα -methoxycarbonyl-DL-methionine Amide]		109	
CC(=O)N[C@@H](C)C(N)=O [Ac-Ala-NH2]	182		
CC(=O)N[C@@H](CCCNC(=N)N)C(N)=O [Ac-Arg-NH2]	110		
CC(=O)N[C@@H](CCC(=O)O)C(N)=O [Ac-Glu-NH2]	162		
CC(=O)N[C@@H](Cc1c[nH]cn1)C(N)=O [Ac-His-NH2]	177		
CC[C@H](C)[C@H](NC(C)=O)C(N)=O [Ac-Ile-NH2]	6		
CC(=O)N[C@@H](CCCCN)C(N)=O [Ac-Lys-NH2]	175		
CC(=O)N[C@@H](Cc1ccccc1)C(N)=O [Ac-Phe-NH2]	134		
CC(=O)N[C@H](C(N)=O)c1ccccc1 [Ac-Phg-NH2, N-acetylphenylglycine amide]	28		
CC(=O)N1CCC[C@H]1C(N)=O [Ac-Pro-NH2]	0		
CC(=O)N[C@@H](CO)C(N)=O [Ac-Ser-NH2]	58		
CC(=O)N[C@H](C(N)=O)[C@@H](C)O [Ac-Thr-NH2]	21		
CC(=O)N[C@@H](Cc1c[nH]c2ccccc12)C(N)=O [Ac-Trp-NH2]	157		
CC(=O)N[C@@H](Cc1ccc(O)cc1)C(N)=O [Ac-Tyr-NH2]	123	123	
CC(=O)N[C@H](C(N)=O)C(C)C [Ac-Val-NH2]	1		
C[C@H](N)C(=O)N[C@@H](C)C(N)=O [Ala-Ala-NH2] (H-Ala-Ala-NH2)		211	211
C[C@H](N)C(=O)N[C@@H](CC(N)=O)C(=O)O [Ala-Asn-OH] (H-Ala-Asn-OH)			0
C[C@H](N)C(=O)N[C@@H](CCC(N)=O)C(=O)O [Ala-Gln-OH] (H-Ala-Gln-OH)			0
C[C@H](N)C(=O)NCC(N)=O [Ala-Gly-NH2] (H-Ala-Gly-NH2)			39
C[C@H](N)C(=O)N[C@@H](Cc1ccccc1)C(N)=O [Ala-Phe-NH2]			218

Molecule	Relative conversion (conversion of N-acetyl amino acid amides, Table 4b) [%]	Relative conversion (influence of protective group and adjacent amino acid, Table 4c) [%]	Relative conversion (conversion of dipeptide amides, Table 4a) [%]
CSCC[C@H](NC(=O)[C@@H](N)CCCNC(=N)N)C(N)=O [Arg-Met-NH2] (H-Arg-Met-NH2)		125	
NC(=O)[C@H](Cc1ccc(O)cc1)NC(=O)c1ccccc1 [Bz-Tyr-NH2]		173	
NCC(=O)N[C@@H](CC(N)=O)C(=O)O [Gly-Asn-OH] (H-Gly-Asn-OH)			0
NCC(=O)NCC(N)=O [Gly-Gly-NH2]			8
NCC(=O)N[C@@H](Cc1ccccc1)C(N)=O [Gly-Phe-NH2] (H-Gly-Phe-NH2)			214
NCC(=O)N[C@@H](Cc1ccc(O)cc1)C(N)=O [Gly-Tyr-NH2] (H-Gly-Tyr-NH2)		174	174
NC(=O)[C@H](Cc1ccccc1)NC(=O)[C@@H](N)Cc1cnc[nH]1 [His-Phe-NH2] (H-His-Phe-NH2)			137
CC(C)C[C@H](N)C(=O)N[C@@H](C)C(N)=O [Leu-Ala-NH2] (H-Leu-Ala-NH2)		217	217
CC(C)C[C@H](N)C(=O)NCC(N)=O [Leu-Gly-NH2] (H-Leu-Gly-NH2)			54
CC(C)C[C@H](N)C(=O)N[C@@H](Cc1ccccc1)C(N)=O [Leu-Phe-NH2] (H-Leu-Phe-NH2)			203
C[C@H](NC(=O)[C@@H](N)Cc1ccccc1)C(N)=O [Phe-Ala-NH2]		203	203
NC(=O)CNC(=O)[C@@H](N)Cc1ccccc1 [Phe-Gly-NH2] (H-Phe-Gly-NH2)			51
NC(=O)CNC(=O)[C@@H]1CCCN1 [Pro-Gly-NH2] (H-Pro-Gly-NH2)			66
NC(=O)[C@H](Cc1ccccc1)NC(=O)[C@@H]1CCCN1 [Pro-Phe-NH2] (H-Pro-Phe-NH2)			158
NC(=O)[C@H](Cc1ccccc1)NC(=O)[C@@H](N)CO [Ser-Phe-NH2]			217
NC(=O)CNC(=O)[C@@H](N)Cc1ccc(O)cc1 [Tyr-Gly-NH2]			54
NC(=O)[C@H](Cc1ccccc1)NC(=O)[C@@H](N)Cc1ccc(O)cc1 [Tyr-Phe-NH2] (H-Tyr-Phe-NH2)			190
NC(=O)[C@@H]1CCCN1C(=O)[C@@H](N)Cc1ccc(O)cc1 [Tyr-Pro-NH2] (H-Tyr-Pro-NH2)			0
CC(C)[C@H](N)C(=O)NCC(N)=O [Val-Gly-NH2] (H-Val-Gly-NH2)			22
CC(C)[C@H](N)C(=O)N[C@@H](Cc1ccccc1)C(N)=O [Val-Phe-NH2] (H-Val-Phe-NH2)			140
C[C@H](NC(=O)OCc1ccccc1)C(N)=O [Z-Ala-NH2]		62	
C[C@@H](NC(=O)OCc1ccccc1)C(N)=O [Z-D-Ala-NH2]		0	
N-acetyl-naphthylalanine amide [Ac-Nal-NH2]	84		
